From patent US20110144331A1, “Cinnoline Compounds for the Treatment of Anxiety, Cognitive and Mood Disorders” (AstraZeneca AB, priority 2005, published 2011)

Tests used:
MT1 Receptor = MT1 Receptor (Homo sapiens, UniProt P48039); experiment: MT1 Receptor Binding
[1] = biological target: human Melatonin receptor 1 (MT1) (Homo sapiens, UniProt P48039); experiment: MT1 GTPγ35S-SPA Assay (Method II); conditions: compound used for normalization
[2] = biological target: T1, human α1β2γ2 GABAA receptor (Homo sapiens, UniProt P14867+P18507); experiment: Two-electrode voltage-clamp in Xenopus oocytes, potentiation of GABA EC10 current, GABAA1; format: cell-based; conditions: percentage potentiation of GABA EC10 current divided by that of diazepam control
T1 construct: expressed in transfected cells; host or cells: Xenopus laevis oocytes injected with capped cRNA
T1 sequence (P14867 28-456): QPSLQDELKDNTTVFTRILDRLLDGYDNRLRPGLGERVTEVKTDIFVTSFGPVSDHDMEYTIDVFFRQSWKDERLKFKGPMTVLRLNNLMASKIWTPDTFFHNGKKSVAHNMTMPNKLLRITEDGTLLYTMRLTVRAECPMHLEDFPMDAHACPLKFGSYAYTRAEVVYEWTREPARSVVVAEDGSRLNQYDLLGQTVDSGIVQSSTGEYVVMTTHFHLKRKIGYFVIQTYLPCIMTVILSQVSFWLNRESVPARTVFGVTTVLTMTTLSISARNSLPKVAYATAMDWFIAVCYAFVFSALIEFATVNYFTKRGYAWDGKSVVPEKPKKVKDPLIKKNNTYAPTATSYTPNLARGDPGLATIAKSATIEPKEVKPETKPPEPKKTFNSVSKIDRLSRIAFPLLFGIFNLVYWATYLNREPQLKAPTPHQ
T1 sequence (P47870 25-512 partner limits assumed): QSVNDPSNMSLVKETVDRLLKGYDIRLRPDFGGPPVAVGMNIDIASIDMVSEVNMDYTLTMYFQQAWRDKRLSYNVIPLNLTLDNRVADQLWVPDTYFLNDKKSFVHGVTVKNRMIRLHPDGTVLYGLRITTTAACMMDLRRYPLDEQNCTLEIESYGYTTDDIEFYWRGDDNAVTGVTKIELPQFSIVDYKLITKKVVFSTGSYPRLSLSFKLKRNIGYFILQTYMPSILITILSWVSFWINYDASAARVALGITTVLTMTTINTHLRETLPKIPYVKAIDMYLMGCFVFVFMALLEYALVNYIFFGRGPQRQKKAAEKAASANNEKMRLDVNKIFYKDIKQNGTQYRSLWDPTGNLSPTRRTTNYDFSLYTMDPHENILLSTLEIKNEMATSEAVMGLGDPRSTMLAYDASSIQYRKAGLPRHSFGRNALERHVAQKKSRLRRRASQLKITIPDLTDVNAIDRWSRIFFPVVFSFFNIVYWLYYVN
T1 sequence (P18507 40-475): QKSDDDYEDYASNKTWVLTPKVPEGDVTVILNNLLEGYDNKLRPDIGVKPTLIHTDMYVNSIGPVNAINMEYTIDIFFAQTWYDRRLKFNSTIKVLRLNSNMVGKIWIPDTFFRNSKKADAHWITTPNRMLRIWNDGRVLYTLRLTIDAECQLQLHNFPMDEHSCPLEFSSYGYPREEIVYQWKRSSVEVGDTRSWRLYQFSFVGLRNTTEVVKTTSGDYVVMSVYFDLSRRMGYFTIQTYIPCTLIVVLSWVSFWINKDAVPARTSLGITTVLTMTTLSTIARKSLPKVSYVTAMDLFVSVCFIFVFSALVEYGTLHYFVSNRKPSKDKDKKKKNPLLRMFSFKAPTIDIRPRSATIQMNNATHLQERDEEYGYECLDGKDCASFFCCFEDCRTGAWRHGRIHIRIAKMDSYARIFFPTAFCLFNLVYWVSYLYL
Experimental: (§1) GABAA receptors were heterologously expressed in Xenopus oocytes by injecting cRNA corresponding to human α1, α2, α3, α5, β2, β3 and γ2 subunits of the GABAA receptor genes. The specific subunit combinations (subtypes) were as follows: α1β2γ2, α2β3γ2, α3β3γ2, and α5β3γ2. The EC10 of GABA was approximated for each cell. Stability of GABA-mediated (EC10) current was established. Modulatory effect of test compound was determined and compared across subtypes. […] Thus, the assay can characterize modulatory effects and determine subtype selectivity of test compounds on major subtypes of GABAA receptors.
(§2) Surgically removed ovarian lobes were teased out in OR2 solution (82 NaCl, 2.5 KCl, 5 HEPES, 1.5 NaH2PO4, 1 MgCl2, 0.1 EDTA, in mM, pH 7.4). The oocytes were defolliculated by incubation in 25 mL OR2 containing 0.2% collagenase 1A (SIGMA) two times for about 60 minutes on a platform shaker and stored in Leibovitz's L-15 medium. Oocytes were injected the following day in 0.5× Leibovitz's L-15 medium containing […] gentamycin, 10 units/ml penicillin, and […] streptomycin.
(§3) Capped cRNAs from the linearized vectors containing human α1, β2 and γ2 subunits of the GABAA receptor genes were mixed in ratio of 1:1:30. Oocytes were injected with 25-50 nL of mixed RNA with an appx molar ratio for α1, β2, and γ2 as 1:1:10. Oocyte recordings were done 2-10 days after injection. The same methods apply to subtypes derived from α2β2γ2, α3β3γ2, and α5β3γ2, except for 1:1:1 ratio was used for α, β, and γ subunits.
(§4) All measurements were done in a medium containing ND-96 (96 NaCl, 2 KCl, 1.8 CaCl2.2H2O, 1 MgCl2.6H2O, 5 HEPES, in mM, pH 7.5). Two-electrode voltage-clamp recording was carried out using OpusXpress amplifier (Axon Instruments, Foster City, Calif.), which allows simultaneous recording from 8 oocytes. Oocytes were impaled with two electrodes of 1-2 MΩ tip resistance when filled with 3M KCl. Recordings were begun when membrane potential became stable at potentials negative to −50-−60 mV. Membrane potential was held at −60 mV. […] The concentration of GABA corresponded to the EC10 value calculated for each oocyte. The modulator pulses started 30 s before the GABA pulse so as to allow preincubation with the modulator. A set of 3 pulses with just GABA without modulator was given prior to the modulator-containing pulses to define the baseline GABA response. Two oocytes per each experiment were dedicated to observe the effect of diazepam on GABA response to ensure the presence of γ2 subunit in the GABAA pentameric complex, which imparts diazepam sensitivity to the complex.
(§5) Current amplitude (i) was measured from baseline to peak using Clampfit (Axon Inst., Foster City, Calif.). Potentiation was calculated as percent change from the baseline GABA current flux 100×(imod/icontrol)−1) where imod=current mediated by modulator+GABA and icontrol=current mediated by GABA alone. […] Similarly, a value of −50% potentiation means the presence of modulator caused a 50% decrease in the control current. Various other data shown here were fitted and plotted using GraphPad Prism (GraphPad Software, Inc. San Diego, Calif.). The percentage potentiation was converted to relative potentiation by dividing it with percentage potentiation value obtained from the same assay with diazepam as a control.

[3] = biological target: T2, human α2β3γ2 GABAA receptor (Homo sapiens, UniProt P18507+P47869); experiment: Two-electrode voltage-clamp in Xenopus oocytes, potentiation of GABA EC10 current, GABAA2; format: cell-based; conditions: percentage potentiation of GABA EC10 current divided by that of diazepam control
T2 construct: expressed in transfected cells; host or cells: Xenopus laevis oocytes injected with capped cRNA (α:β:γ 1:1:1)
T2 sequence (P47869 29-451): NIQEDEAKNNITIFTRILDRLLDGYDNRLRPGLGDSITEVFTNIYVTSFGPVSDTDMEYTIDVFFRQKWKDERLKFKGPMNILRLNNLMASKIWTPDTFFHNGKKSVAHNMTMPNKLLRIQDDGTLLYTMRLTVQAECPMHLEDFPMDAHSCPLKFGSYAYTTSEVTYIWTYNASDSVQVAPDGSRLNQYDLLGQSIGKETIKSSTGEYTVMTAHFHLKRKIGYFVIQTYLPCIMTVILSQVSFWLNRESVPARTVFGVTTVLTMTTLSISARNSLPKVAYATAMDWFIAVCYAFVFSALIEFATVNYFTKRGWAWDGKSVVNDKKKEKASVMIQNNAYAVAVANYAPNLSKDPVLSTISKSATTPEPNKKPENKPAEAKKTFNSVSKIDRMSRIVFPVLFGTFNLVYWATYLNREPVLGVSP
T2 sequence (P18507 40-475): as the sequence (P18507 40-475) above
T2 sequence (P28472 26-473 partner): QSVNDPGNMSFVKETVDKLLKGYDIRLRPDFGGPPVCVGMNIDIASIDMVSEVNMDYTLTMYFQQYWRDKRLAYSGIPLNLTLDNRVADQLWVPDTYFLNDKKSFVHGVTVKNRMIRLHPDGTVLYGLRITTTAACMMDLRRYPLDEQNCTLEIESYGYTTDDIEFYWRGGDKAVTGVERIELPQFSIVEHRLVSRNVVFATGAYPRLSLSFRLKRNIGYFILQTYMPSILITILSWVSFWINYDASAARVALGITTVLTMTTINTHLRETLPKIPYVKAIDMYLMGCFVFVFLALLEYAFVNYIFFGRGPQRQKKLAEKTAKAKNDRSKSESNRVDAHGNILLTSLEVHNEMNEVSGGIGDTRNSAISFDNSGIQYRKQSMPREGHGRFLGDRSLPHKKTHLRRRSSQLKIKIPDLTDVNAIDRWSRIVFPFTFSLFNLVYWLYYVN
Experimental: as §1, §2, §3, §4, §5

Chain of MT1 Receptor (P48039 whole entry): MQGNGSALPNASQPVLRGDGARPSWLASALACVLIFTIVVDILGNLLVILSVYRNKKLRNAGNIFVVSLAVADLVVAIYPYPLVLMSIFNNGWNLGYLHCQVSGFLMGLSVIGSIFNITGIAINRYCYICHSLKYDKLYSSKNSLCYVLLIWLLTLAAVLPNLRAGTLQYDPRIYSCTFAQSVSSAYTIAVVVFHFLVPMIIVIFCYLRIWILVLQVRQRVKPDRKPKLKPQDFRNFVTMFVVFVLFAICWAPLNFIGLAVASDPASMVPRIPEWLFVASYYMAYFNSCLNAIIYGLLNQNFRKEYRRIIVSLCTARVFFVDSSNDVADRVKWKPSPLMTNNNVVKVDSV
Chain of human Melatonin receptor 1 (MT1) (P48039 whole entry): as above

Structure (SMILES) | inhibition at 1 µM (MT1 Receptor) [%] | EC100 concentration [1] [nM] | Relative Potentiation for GABAA1 [2] | Relative Potentiation for GABAA2 [3]
CCCNC(=O)c1nnc2c(-c3c(F)cccc3OC)cccc2c1N [drawing 423] | 89 |  |  | 
COc1ccc2[nH]c(I)c(CCNC(C)=O)c2c1 [2-Iodomelatonin] |  | 3 |  | 
CCCNC(=O)c1nnc2c(-c3cnccc3OC)cccc2c1N | 82 |  |  | 
CCCNC(=O)c1nnc2c(-c3cc(F)ccc3OC)cccc2c1N |  |  | 0.026 | 0.4
CCCNC(=O)c1nnc2c(-c3ccc(C)nc3)cccc2c1N |  |  | −0.16 | 0.14
CCCNC(=O)c1nnc2c(-c3cccc(N(C)C)c3)cccc2c1N |  |  | 0.17 | 0.19
CCCNC(=O)c1nnc2c(-c3cnc(OC)nc3OC)c(F)ccc2c1N |  |  | 0.12 | 0.39
CCCNC(=O)c1nnc2c(-c3cccnc3OC)cccc2c1N |  |  | 0.2 | 0.097
CCCNC(=O)c1nnc2c(-c3cc(C)ccc3OC)c(F)ccc2c1N |  |  | 0.23 | 0.37
